Experiment [1] has as its target T1, D(2) dopamine receptor (Rattus norvegicus, UniProt P61169). Put plainly: Displacement of [3H]spiperone from rat striatal Dopamine receptor D2.
In experiment [2] the test system is Rattus norvegicus. The experiment is described as follows: Tested for locomotor activity (LMA) in rat by peroral administration. The class given is functional. As to conditions: po.
The test system of experiment [3] is Mus musculus. The experiment is described as follows: Tested for locomotor activity (LMA) in mouse by intraperitoneal administration. Particulars: ip. The class given is functional.
Experiment [4] deals with Rattus norvegicus. The experiment is described as follows: Percent reversal of the increase inDOPA levels in the striatum of GBL-treated rats at 10 mg/kg administered intraperitoneally. As to conditions: route intraperitoneal; for Reversal % at 10 mg/kg: ip. The class given is functional.
The subject of experiment [5] is Mus musculus. Put plainly: Tested for locomotor activity (LMA) in mouse by intraperitoneal administration for the dose >30 mg/kg. The experiment is classed as functional. Particulars: ip.
For experiment [6], the system named is Rattus norvegicus. Put plainly: Tested for locomotor activity (LMA) in rat by peroral administration for the dose for the dose of >10 mg/kg. The class given is functional. Particulars: po.
Experiment [7] relates to Rattus norvegicus. The experiment is described as follows: Tested for % rats with stereotypy at the dose of 116 mg/Kg administered perorally. The class given is functional.
Experiment [8] has as its system Rattus norvegicus. The experiment is described as follows: Tested for locomotor activity in rat by peroral administration. The class given is functional. As to conditions: po.
Experiment [9] relates to Rattus norvegicus. The experiment is described as follows: Tested for inhibition of Dopamine neuronal firing in rat at the dose of 2.5 mg/Kg by intraperitoneal administration. The experiment is classed as functional. Particulars: ip.
The target in experiment [10] is T1, D(2) dopamine receptor. Put plainly: In vitro agonist binding affinity was determined by displacing the [3H]N-propylnorapomorphine ([3H]NPA) in rat striatal Dopamine receptor D2.
The target of experiment [11] is D(1A) dopamine receptor (Rattus norvegicus, UniProt P18901). The experiment is described as follows: In vitro antagonist binding affinity was determined by displacing the [3H]-SCH- in rat striatal Dopamine receptor D1.
Chain of D(1A) dopamine receptor (P18901 whole entry): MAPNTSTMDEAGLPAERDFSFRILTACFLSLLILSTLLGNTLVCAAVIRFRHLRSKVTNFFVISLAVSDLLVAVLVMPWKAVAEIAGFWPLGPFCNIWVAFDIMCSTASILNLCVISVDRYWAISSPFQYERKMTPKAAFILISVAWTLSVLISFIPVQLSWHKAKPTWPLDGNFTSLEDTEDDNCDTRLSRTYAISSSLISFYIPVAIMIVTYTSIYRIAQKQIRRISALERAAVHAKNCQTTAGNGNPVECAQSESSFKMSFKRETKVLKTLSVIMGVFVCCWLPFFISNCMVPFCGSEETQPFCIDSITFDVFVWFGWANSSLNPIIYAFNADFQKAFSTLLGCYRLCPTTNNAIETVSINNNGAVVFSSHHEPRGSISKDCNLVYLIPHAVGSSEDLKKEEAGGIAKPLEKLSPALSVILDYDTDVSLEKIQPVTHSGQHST
In experiment [12] the test system is Rattus norvegicus. Put plainly: Tested for locomotor activity in Rat by peroral administration. The class given is functional. As to conditions: po.
Experiment [13] has as its system Rattus norvegicus. Put plainly: Tested for inhibition of dopamine neuronal firing in rat at the dose of 2.5 mg/Kg by intraperitoneal administration. The experiment is classed as functional. Particulars: ip.
In experiment [14] the test system is Rattus norvegicus. The experiment is described as follows: Tested for % rats with stereotypy at the dose of 61 mg/Kg administered perorally. The experiment is classed as functional.
Experiment [15] deals with Rattus norvegicus. Put plainly: Tested for % rats with stereotypy at the dose of 67 mg/Kg administered perorally. The experiment is classed as functional.
Experiment [16] deals with Rattus norvegicus. The experiment is described as follows: Percent reversal of the increase inDOPA levels in the striatum of GBL-treated rats when administered intraperitoneally was determined. The experiment is classed as functional. Particulars: ip.
Experiment [17] concerns Rattus norvegicus. Put plainly: Tested for % rats with stereotypy at the dose of 20 mg/Kg administered perorally. The experiment is classed as functional.
The test system of experiment [18] is Rattus norvegicus. Put plainly: Tested for % rats with stereotypy at the dose of 0.3 mg/Kg subcutaneous administration. The experiment is classed as functional.
Experiment [19] relates to Rattus norvegicus. The experiment is described as follows: Tested for inhibition of dopamine neuronal firing in rat at the dose of 0.25 mg/Kg by intraperitoneal administration. The class given is functional. Particulars: ip.
The subject of experiment [20] is Rattus norvegicus. The experiment is described as follows: Tested for locomotor activity in rat by subcutaneous administration. Particulars: sc.

T1 sequence (P61169 whole entry): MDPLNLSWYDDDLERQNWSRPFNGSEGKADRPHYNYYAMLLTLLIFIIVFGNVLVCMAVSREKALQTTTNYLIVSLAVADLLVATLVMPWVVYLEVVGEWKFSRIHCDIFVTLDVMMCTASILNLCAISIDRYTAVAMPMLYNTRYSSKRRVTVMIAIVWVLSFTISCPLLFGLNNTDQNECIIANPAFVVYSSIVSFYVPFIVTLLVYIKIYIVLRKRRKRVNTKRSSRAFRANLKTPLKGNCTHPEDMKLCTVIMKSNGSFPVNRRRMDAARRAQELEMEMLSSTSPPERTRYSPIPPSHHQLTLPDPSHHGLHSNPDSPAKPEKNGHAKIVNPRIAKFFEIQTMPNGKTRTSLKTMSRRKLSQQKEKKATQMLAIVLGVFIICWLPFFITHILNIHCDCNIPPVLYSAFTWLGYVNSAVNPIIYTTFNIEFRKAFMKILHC

By IC50 is commonly meant the point on the concentration scale where inhibition reaches its midpoint. The ED50 is the midpoint of the dose-response relation. Turning to `C1=C(c2cccs2)CCC(N2CCN(c3ccccn3)CC2)C1` (stereo not drawn), the IC50 in experiment [1] was found to be 352 nM. The median effective dose (ED50) in [2] was above 30 mg/kg; in [3] it was 9.3 mg/kg.
In turn, `C1=C(c2ccccc2)CCC(N2CCN(c3ccccn3)CC2)C1` (stereo not drawn) showed an IC50 in experiment [1] of 600 nM. Besides, the ED50 in experiment [2] was above 30 mg/kg; in experiment [3] it was 1 mg/kg.
In the case of `C1=C(c2ccccc2)CCC(CCN2CCN(c3ccccn3)CC2)C1` (stereo not drawn), in experiment [4], the Reversal is 50%. The ED50 in experiment [2] turned out to be 6.7 mg/kg; in experiment [3], 2.1 mg/kg.
As to `C1=C(c2ccccn2)CCC(CCN2CCN(c3ccccn3)CC2)C1` (stereo not drawn), the Reversal in [4] came out at 89%. Further, the median effective dose (ED50) in [5] was 0.4 mg/kg; in experiment [6], around 3 mg/kg. Further, the IC50 in experiment [1] is 128 nM.
With `C1=C(c2cccs2)CCC(CCN2CCN(c3ccccn3)CC2)C1` (stereo not drawn), the Reversal in [4] was determined as 46%. The IC50 in experiment [1] amounted to 436 nM. Further, the figures for the ED50 in experiment [2] and in [3] were 13 mg/kg and 8.4 mg/kg, respectively.
In general, inhibition in vivo refers to the relative decrease from the control value, in per cent. As to `C1=C(c2ccccc2)CC[C@@H](CCN2CCN(c3ccccn3)CC2)C1`, the Reversal % at 10 mg/kg in experiment [4] was 57%. Besides, the Activity in [7] is on record as 60%. The IC50 in [1] is 545 nM; in experiment [10], 64 nM; in experiment [11], above 6000 nM. This compound yielded an ED50 in experiment [8] of 9.1 mg/kg. Also, in experiment [9], at 2.5 mg/kg the inhibition in vivo was 58%.
In experiment [1], `C1=C(c2ccccc2)CCC(CN2CCN(c3ccccn3)CC2)C1` (stereo not drawn) had an IC50 of around 10000 nM. In addition, in experiment [3], the ED50 was around 30 mg/kg.
Take `C1=C(c2cccs2)CCC(CN2CCN(c3ccccn3)CC2)C1` (stereo not drawn): the IC50 in [1] is 2430 nM. Further, in experiment [3], the ED50 is above 30 mg/kg.
As for `C1=C(c2ccccc2)CC[C@H](CCN2CCN(c3ccccn3)CC2)C1`, the Reversal % at 10 mg/kg in experiment [4] was 49%. Further, in experiment [12], the 50% effect level (ED50) was put at a dose of 6.1 mg/kg. Also, the inhibition in vivo at 2.5 mg/kg in experiment [13] came out at 38%. The IC50 in experiment [1] is 704 nM; in experiment [10], 82 nM; in experiment [11], above 6000 nM. For the same compound, the Activity in experiment [14] was 0%.
For `C1=C(c2ccccn2)CCC(N2CCN(c3ccccn3)CC2)C1` (stereo not drawn), the Reversal in experiment [4] was 75%. In experiment [1], this compound displayed an IC50 of 1180 nM. Besides, the ED50 in experiment [2] is 5.8 mg/kg; in [3], 0.9 mg/kg.
Take `C1=C(c2ccccc2)CCC(CCN2CCN(c3ccccn3)CC2)C1` (racemic): the Reversal % at 10 mg/kg in experiment [4] came to 50%. The same compound registered an inhibition in vivo at 2.5 mg/kg in experiment [13] of 41%. For the same compound, the IC50 in experiment [1] is 412 nM; in experiment [10], 88 nM; in [11], above 6000 nM. In experiment [15], the Activity is recorded as 0%. In experiment [8], this compound gave an ED50 of 6.7 mg/kg.
In [13], `CN1CCC=C2c3nc(N)sc3CCC21` (racemic) yielded an inhibition in vivo at 2.5 mg/kg of 99%. The IC50 in [1] is 2920 nM; in [10], 202 nM; in [11] it was above 10000 nM. Besides, the results for the ED50 in [8] and in experiment [16] were 0.8 mg/kg and 0.7 mg/kg, respectively. Also, the Activity in [17] stood at 0%.
`CN1CCc2cccc3c2[C@H]1Cc1ccc(O)c(O)c1-3` [APOMORPHINE]: the ED50 in experiment [8] was above 30 mg/kg; in experiment [16] it was 0.3 mg/kg; in [20], 0.03 mg/kg. For the same compound, the Activity in experiment [18] was 100%. This compound had an inhibition in vivo at 0.25 mg/kg in experiment [19] of 100%.

Values taken from ChEMBL document CHEMBL1151026, “Synthesis and pharmacological evaluation of the enantiomers of the dopamine autoreceptor agonist PD 135385” (Bioorg Med Chem Lett, 1993).
